Data as given in US4036834A, “Derivatives of 7-(α-hydroxy-substituted pyridyl carboxamido-α p h Δ^3 -cephem-4-carboxylic acid” (Yamanouchi Pharmaceutical Co., Ltd., priority 1974, dated 1977).
Converted amounts (≈) assume the structure as drawn. Read-outs that look alike come from different tables or passages of the source.

Tests used:
[1] = system: pseudomonas aeruginosa ATCC 8689; test: MIC against pseudomonas aeruginosa ATCC 8689; format: cell-based; conditions: Pseudomonas aeruginosa, ATCC8689
From the text: (§1) Now, for illustrating the excellent pharmacological effects of the compounds of this invention, the values of MIC (γ/ml) of the compounds against various bacteria are shown in the following table, the compounds of this invention are shown by example numbers.
4: pseudomonas aeruginosa ATCC 8689

[2] = system: Shigella flexnori 2a 1675; test: MIC against Shigella flexnori 2a 1675; format: cell-based; conditions: 2A1675
From the text: as §1

[3] = system: proteus mirabilis IFM OM-19; test: MIC against proteus mirabilis IFM OM-19; format: cell-based; conditions: IFMOM19
From the text: as §1
3. proteus mirabilis IFM OM-19

[4] = system: staphylococcus aureus 209P; test: MIC against staphylococcus aureus 209P; format: cell-based; conditions: read-out: MIC
From the text: as §1
16: staphylococcus aureus 209P

Shigella sonnei II 37148 = test: MIC against Shigella sonnei II 37148; format: cell-based; conditions: II37148
From the text: as §1

salmonella enteritidis = test: MIC against salmonella enteritidis; format: cell-based; conditions: Salmonella enterica; salmonella enteritidis; read-out: MIC
From the text: as §1
10: salmonella enteritidis

[5] = water solubility, naked-eye observation of solutions; format: physicochemical
From the text: Then, the experimental results showing the excellent water solubility of the compounds of this invention are illustrated in the following table, the results being the observation results by the naked eyes of the solutions thereof in each concentration as shown in the table.

Staphylococcus Onuma = test: MIC against Staphylococcus Onuma; format: cell-based
From the text: as §1

[6] = system: Klebsiella pneumoniae ATCC 10031; test: MIC against Klebsiella pneumoniae ATCC 10031; format: cell-based; conditions: ATCC10031
From the text: as §1
8: Klebsiella pneumoniae ATCC 10031

[7] = system: Pseudomonas ovalis IAM 1002; test: MIC against Pseudomonas ovalis IAM 1002; format: cell-based; conditions: Pseudomonas putida, IAM1002
From the text: as §1
6: Pseudomonas ovalis IAM 1002

Proteus vulgaris OXK US = test: MIC against Proteus vulgaris OXK US; format: cell-based; conditions: Proteus vulgaris OXK US; read-out: MIC
From the text: as §1
1: Proteus vulgaris OXK US

[8] = system: pseudomonas aeruginosa 99 (Gentamycin resistant); test: MIC against pseudomonas aeruginosa 99 (Gentamycin resistant); format: cell-based; conditions: Pseudomonas aeruginosa
From the text: as §1
5: pseudomonas aeruginosa 99 (Gentamycin resistant)

[9] = system: staphylococcus Shimanishi; test: MIC against staphylococcus Shimanishi; format: cell-based
From the text: as §1
17. staphylococcus Shimanishi

[10] = system: bacillus megatherium 10778; test: MIC against bacillus megatherium 10778; format: cell-based; conditions: bacillus megatherium 10778; read-out: MIC
From the text: as §1

[11] = system: escherichia coli Kauffman 0-1; test: MIC against escherichia coli Kauffman 0-1; format: cell-based
From the text: as §1
7: escherichia coli Kauffman 0-1

salmonella typhi H901W = test: microbe, parasite or virus in culture; format: cell-based; conditions: Salmonella enterica
proteus vulgaris OX 19US = test: MIC against proteus vulgaris OX 19US; format: cell-based; conditions: OX19US; proteus vulgaris OX 19US; read-out: MIC
From the text: as §1
2. proteus vulgaris OX 19US

[12] = system: Bacillus subtilis ATCC 6633; test: MIC against Bacillus subtilis ATCC 6633; format: cell-based; conditions: ATCC6633; Bacillus subtilis ATCC 6633; read-out: MIC
From the text: as §1
14: Bacillus subtilis ATCC 6633

[13] = system: micrococcus flavus ATCC 10240; test: MIC against micrococcus flavus ATCC 10240; format: cell-based; conditions: ATCC10240; micrococcus flavus ATCC 10240; read-out: MIC
From the text: as §1

Row | SMILES | MIC [1] [µg/mL] | MIC [2] [µg/mL] | MIC [3] [µg/mL] | MIC [4] [µg/mL] | MIC (Shigella sonnei II 37148) [µg/mL] | MIC (salmonella enteritidis) [µg/mL] | water solubility (appearance of solution by the naked eyes) ([5]; concentration 1%) | water solubility (appearance of solution by the naked eyes) ([5]; concentration 5%) | water solubility (appearance of solution by the naked eyes) ([5]; concentration 10%) | water solubility (appearance of solution by the naked eyes) ([5]; concentration 20%) | MIC [7] [µg/mL] | MIC (Proteus vulgaris OXK US) [µg/mL] | MIC [8] [µg/mL] | MIC [10] [µg/mL] | MIC (salmonella typhi H901W) [µg/mL] | MIC (proteus vulgaris OX 19US) [µg/mL] | MIC [12] [µg/mL] | MIC [13] [µg/mL] | also measured
1 | Cc1c(S)sc(SCC2=C(C(=O)O)N3C(=O)[C@@H](NC(=O)[C@H](NC(=O)c4cnccc4O)c4ccccc4)[C@H]3SC2)c(C)c1=O [Example 3, 7-[D-α-(4-hydroxynicotinoylamido)-α-phenylacetamido]-3-(3,5-dimethyl-6-mercapto-4-oxo-4H-thiopyran-2-yl)thiomethyl-Δ^3-cephem-4-carboxylic acid] | 12.5 (≈ 18.6 µM) | 6.25 (≈ 9.32 µM) | 0.78 (≈ 1.16 µM) | 1.56 (≈ 2.33 µM) | 12.5 (≈ 18.6 µM) | 0.78 (≈ 1.16 µM) | clear | clear | clear | clear | 6.25 (≈ 9.32 µM) | 0.19 (≈ 0.283 µM) | 12.5 (≈ 18.6 µM) | 0.19 (≈ 0.283 µM) | 3.13 (≈ 4.67 µM) | 0.39 (≈ 0.581 µM) | 0.78 (≈ 1.16 µM) | 1.56 (≈ 2.33 µM) | MIC (Staphylococcus Onuma; Staphylococcus): 12.5 µg/mL (≈ 18.6 µM); MIC ([6]; Klebsiella pneumoniae): 12.5 µg/mL (≈ 18.6 µM); MIC ([9]; Staphylococcus): 6.25 µg/mL (≈ 9.32 µM); MIC ([11]; Escherichia coli): 12.5 µg/mL (≈ 18.6 µM)
2 | Cc1nc(S)cc(SCC2=C(C(=O)O)N3C(=O)[C@@H](NC(=O)[C@H](NC(=O)c4cnccc4O)c4ccccc4)[C@H]3SC2)n1 [Example 2, 7-[D-α-(4-hydroxynicotinoylamido)-α-phenylacetamido]-3-(2-methyl-4-mercaptopyrimidin-6-yl)thiomethyl-Δ ^3-cephem-4-carboxylicacid] | 12.5 (≈ 20 µM) | 12.5 (≈ 20 µM) | 0.39 (≈ 0.624 µM) | 0.39 (≈ 0.624 µM) | 12.5 (≈ 20 µM) | 0.19 (≈ 0.304 µM) | clear | clear | clear | slightly turbid | 12.5 (≈ 20 µM) | 0.19 (≈ 0.304 µM) | 12.5 (≈ 20 µM) | 0.19 (≈ 0.304 µM) | 0.19 (≈ 0.304 µM) | 1.56 (≈ 2.5 µM) | 0.39 (≈ 0.624 µM) | 3.13 (≈ 5.01 µM) | MIC (Staphylococcus Onuma; Staphylococcus Onuma, read-out: MIC): 6.25 µg/mL (≈ 10 µM); MIC ([6]; Klebsiella pneumoniae ATCC 10031, read-out: MIC): 3.13 µg/mL (≈ 5.01 µM); MIC ([9]; staphylococcus Shimanishi, read-out: MIC): 3.13 µg/mL (≈ 5.01 µM); MIC ([11]; escherichia coli Kauffman 0-1, read-out: MIC): 6.25 µg/mL (≈ 10 µM)
